Patent US20150307940A1, “MOLECULAR SIGNATURE OF CUTANEOUS PIGMENTARY SPOTS, ASSOCIATED WITH THE EXTRACELLULAR MATRIX” (L'OREAL, priority 2011, published 2015)
Like-named read-outs stand apart in the source and are kept apart here. Where a SMILES comes first, the peptide text is derived from it.

Legend:
[1] = test system: SMAD7, SMAD family member 7; details: cited from earlier work
[2] = test system: BMP2, bone morphogenetic protein 2; details: cited from earlier work
ASPN, Asporin = details: cited from earlier work
[3] = target: PLAU, plasminogen activator, urokinase (Homo sapiens, UniProt P00749); details: cited from earlier work
[4] = test system: SMAD3, SMAD family member 3; details: cited from earlier work
[5] = test system: TGFBR2, transforming growth factor, β receptor II (70/80 kDa); details: cited from earlier work
[6] = test system: TIMP1, metallopeptidase inhibitor 1; details: cited from earlier work
[7] = target: T1, PLOD2, procollagen-lysine, 2-oxoglutarate 5-dioxygenase 2 (Homo sapiens, UniProt O00469); details: cited from earlier work
T1 sequence (O00469 26-737): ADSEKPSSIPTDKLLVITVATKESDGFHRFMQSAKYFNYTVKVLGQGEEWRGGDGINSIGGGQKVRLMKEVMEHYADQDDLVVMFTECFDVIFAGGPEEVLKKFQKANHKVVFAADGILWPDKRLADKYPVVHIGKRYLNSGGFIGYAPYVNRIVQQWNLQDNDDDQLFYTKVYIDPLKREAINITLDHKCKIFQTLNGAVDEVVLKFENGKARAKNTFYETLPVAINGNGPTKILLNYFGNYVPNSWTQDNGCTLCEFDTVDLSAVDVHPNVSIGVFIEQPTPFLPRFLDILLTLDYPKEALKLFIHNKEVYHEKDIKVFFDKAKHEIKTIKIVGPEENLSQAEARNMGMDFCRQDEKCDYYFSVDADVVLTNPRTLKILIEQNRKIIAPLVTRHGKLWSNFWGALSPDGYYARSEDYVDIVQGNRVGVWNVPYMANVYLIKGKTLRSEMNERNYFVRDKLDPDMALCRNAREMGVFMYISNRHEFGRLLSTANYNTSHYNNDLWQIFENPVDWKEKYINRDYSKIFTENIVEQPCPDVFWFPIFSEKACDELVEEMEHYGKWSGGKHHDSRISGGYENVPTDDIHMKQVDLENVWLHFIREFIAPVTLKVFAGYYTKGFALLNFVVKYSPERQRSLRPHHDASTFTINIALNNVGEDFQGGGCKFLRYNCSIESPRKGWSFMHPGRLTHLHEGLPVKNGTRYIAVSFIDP

[8] = target: T2, LYZ, lysozyme (renal amyloidosis) (Homo sapiens, UniProt P61626); details: cited from earlier work
T2 sequence (P61626 19-148): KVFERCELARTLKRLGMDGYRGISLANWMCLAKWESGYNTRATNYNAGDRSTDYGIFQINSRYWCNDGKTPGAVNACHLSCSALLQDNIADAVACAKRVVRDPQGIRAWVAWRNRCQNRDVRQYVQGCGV

[9] = test system: reconstructed pigmented skin (RPS); experiment: Stimulation of pigmentation of reconstructed pigmented skin by treatment with TGF-beta; type: cell-based; details: 200 pg/mL TGF-β1 on equivalent dermis for 3 days, compared with control
Experimental: FIG. 1: This figure illustrates the Reconstructed Pigmented Skin (RPS) treatment protocol using TGF-β. In the diagram, T means “treatment with TGF-β”, in a concentration of 200 pg/mL, with 4 mM of HCl and 1 mg/mL of BSA as the vehicle. The medium was MEM 3F′ with 2% FBS. The equivalent derma were treated for 3 consecutive days. On D0i, the equivalent dermis was seeded with keratinocytes and melanocytes (K+M on the graph) and kept immersed for 7 days. The culture was then emersed for 2 weeks;
The treatment protocol for reconstructed pigmented skin (RPS) with TGF-β is illustrated in FIG. 1. It was as follows:
Equivalent dermis (lattices) containing live fibroblasts in a collagen matrix were attached to the bottom of a Petri dish (D-4) and treated with TGF-β1 (T on FIG. 1) in a concentration of 200 pg/mL (vehicle: 4 mM of HCl and 1 mg/mL of BSA; medium: MEM 3F′ with 2% FBS), for 3 days (D-3; D-2 and D-1 in FIG. 1). Next, the pigmented epidermis was reconstructed on the equivalent dermis by seeding keratinocytes and melanocytes (D0). The culture was kept immersed for 1 week and emersed for 2 weeks (FIG. 1).
Samples were removed to analyse the pigmentation: • integration and morphology of melanocytes were observed after Dopa reaction on detached epidermis; • colorimetric luminance measurement provided information regarding the degree of clarity of the samples (the lower the L*, the darker the samples); • the presence of melanin was observed after Fontana Masson staining skin sections; and • the quantity of melanin present in the epidermis was measured by image analysis.

MATN2, matrilin 2 = details: cited from earlier work

For O=CC(=O)C[C@H](O)[C@H](O)CO [3-deoxyglucosone], the “Sense of modulation: SMAD7 expression” value [1] is given as “Increases”.
For Cc1cc(SCc2sc(-c3ccc(C(F)(F)F)c(F)c3)nc2C)ccc1OCC(=O)O [GW0742], the “Sense of modulation: BMP2 expression” value [2] is given as “Reduces exp” and the “Sense of modulation: BMP2 expression” value ([2]; listed as GW-0742) is given as “reduces”.
For N#Cc1ccc(C(c2ccc(C#N)cc2)n2cncn2)cc1 [Letrozole], the “Sense of modulation: ASPN expression” value (ASPN, Asporin) is listed as “Increases”.
In the case of CC(=O)N[C@@H](CO)C(=O)N[C@@H](CC(=O)O)C(=O)N[C@@H](CCCCN)C(=O)N1CCC[C@H]1C(=O)O [N-acetyl-seryl-aspartyl-lysyl-proline] (Ac-SDKP-OH), the “Sense of modulation: SMAD7 expression” value [1] is listed as “Increases”.
For CC(C)=CCC[C@](C)(O[C@@H]1O[C@H](CO)[C@@H](O)[C@H](O)[C@H]1O)[C@H]1CC[C@]2(C)[C@@H]1[C@H](O)C[C@@H]1[C@@]3(C)CC[C@H](O)C(C)(C)[C@@H]3[C@@H](O[C@@H]3O[C@H](CO)[C@@H](O)[C@H](O)[C@H]3O[C@@H]3OC[C@@H](O)[C@H](O)[C@H]3O)C[C@]12C [Notoginsenoside R1], the “Sense of modulation: PLAU expression” value [3] is listed as “Increases”.
In the case of O=C1CCC[C@@H]2[C@H]3CCC[N+]4([O-])CCC[C@@H](CN12)[C@@H]34 (some centres unmarked) [Oxymatrine], the “modulation of SMAD3 ('reduces SMAD3', level not given)” value [4] is given as “reduces” and the “Sense of modulation: SMAD7 expression” value [1] is given as “Increases”.
In the case of N=C(N)c1ccc(N)cc1 [P-aminobenzamidine], the “Sense of modulation: PLAU activity” value [3] is listed as “Reduces activity” and the “Sense of modulation: PLAU activity” value ([3]; listed as p-aminobenzamidine) is listed as “reduces”.
For NC(=O)c1ccc(-c2nc(-c3ccc4c(c3)OCO4)c(-c3ccccn3)[nH]2)cc1 [SB-431542], the “Sense of modulation: SMAD3 expression” value [4] is listed as “Reduces” and the “modulation of SMAD3 ('reduces SMAD3', level not given)” value [4] is listed as “reduces”.
For O=C(/C=C/c1ccc(O)c2c1[C@H](C(=O)O[C@H](Cc1ccc(O)c(O)c1)C(=O)O)[C@@H](c1ccc(O)c(O)c1)O2)O[C@H](Cc1ccc(O)c(O)c1)C(=O)O [Salvianolic Acid B (Sal B), Salvianolic Acid B], the “Sense of modulation: SMAD3 expression” value [4] is given as “Reduces”, the “modulation of SMAD3 ('reduces SMAD3', level not given)” value [4] is given as “reduces” and the “Sense of modulation: TGFBR2 expression” value [5] is given as “reduces”. For the same compound, the “Sense of modulation: TGFBR2 expression” value ([5]; listed as Salvianolic acid B (SA-B)) was “Reduces”.
In the case of O=C([O-])Cc1ccccc1.[Na+] [Sodium phenylacetate (NaPA), Sodium phenylacetate], the “Sense of modulation: PLAU expression” value [3] is given as “Reduces” and the “Sense of modulation: PLAU expression” value ([3]; listed as NaPA) is given as “reduces”.
For COC(=O)[C@@H](c1ccccc1Cl)N1CCc2sccc2C1 [Thienopyridine SR 25989], the “Sense of modulation: PLAU expression” value [3] is listed as “Increases”.
In the case of CCCCC(=O)N(Cc1ccc(-c2ccccc2-c2nnn[nH]2)cc1)[C@H](C(=O)O)C(C)C [Valsartan], the “Sense of modulation: TIMP1 expression” value [6] is listed as “Reduces” and the “Sense of modulation: TIMP1 expression” value ([6]; listed as valsartan) is listed as “reduces”.
For CC(C)(C#N)c1cc(Cn2cncn2)cc(C(C)(C)C#N)c1 [anastrozole], the “Sense of modulation: ASPN expression” value (ASPN, Asporin) is given as “Increases”.
In the case of N#CCCN [beta-aminopropionitrile (bAPN), beta-aminopropionitrile], the “Sense of modulation: PLOD2 expression” value [7] is listed as “Reduces”.
In the case of “PACAP38: form of pituitary adenylate cyclase-activating polypeptide listed beneath PACAP”, the “Sense of modulation: LYZ expression” value [8] is listed as “Increases”.
With “TGF-β1: Transforming growth factor beta 1 used to treat equivalent dermis at 200 pg/mL” the “integration and morphology of melanocytes (Dopa reaction on detached epidermis)” value [9] was “still present in the epidermis and retain the correct dendritic morphology”, the “melanin content (Fontana Masson stained sections, quantification by image analysis)” value [9] was “visibly increased” and the “melanin deposits in the epidermis” value [9] was “higher”. The “luminance of the samples (L*)” value ([9]; lower L* = darker) was “reduced”.
In the case of Vitamin K2 menaquinone, the “Sense of modulation: MATN2 expression” value (MATN2, matrilin 2) is listed as “Increases”.
